Laboratory results reported in patent US10597388B2, “Pyridazinone herbicides” (FMC CORPORATION, priority 2014, dated 2020).

Tests used:
Test in all cases: Test C greenhouse herbicide test, pre- and postemergence
Type in all cases: in vivo
[1] = tested on: crabgrass, large (large crabgrass, Digitaria sanguinalis)
In short: (§1)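 Two application timings: at sowing into a soil/sand blend, and on 2–18 cm seedlings in peat-vermiculite potting mix. A non-phytotoxic, surfactant-containing solvent carried the compounds. Plants were compared with controls and rated visually on 0–100 after 13–15 d.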

soybean (Glycine max) = tested on: soybean (Glycine max)
In short: as §1

[2] = tested on: lambsquarters (Chenopodium album)
In short: as §1

[3] = tested on: velvetleaf (Abutilon theophrasti)
In short: as §1

[4] = tested on: waterhemp (common waterhemp, Amaranthus rudis)
In short: as §1

[5] = tested on: oilseed rape (Brassica napus)
In short: as §1

corn (Zea mays) = tested on: corn (Zea mays)
In short: as §1

[6] = tested on: barnyardgrass (Echinochloa crus-galli)
In short: as §1

[7] = tested on: ragweed (common ragweed, Ambrosia elatior)
In short: as §1

[8] = tested on: morningglory (Ipomoea coccinea)
In short: as §1

[9] = tested on: ryegrass, Italian (Italian ryegrass, Lolium multiflorum)
In short: as §1

[10] = tested on: nutsedge, yellow (yellow nutsedge, Cyperus esculentus)
In short: as §1

[11] = tested on: blackgrass (Alopecurus myosuroides)
In short: as §1

[12] = tested on: foxtail, giant (giant foxtail, Setaria faberii)
In short: as §1

[13] = tested on: galium (catchweed bedstraw, Galium aparine)
In short: as §1

[14] = Postemergence, 31 g ai/ha, 0 to 100 scale (0 no effect, 100 complete control)
[15] = Postemergence, 125 g ai/ha, scale 0 to 100, 0 is no effect, 100 is complete control
[16] = Postemergence, 250 g ai/ha, scale 0 to 100, 0 no effect, 100 complete control, 13 to 15 d
[17] = Preemergence, 31 g ai/ha, scale 0 to 100, 0 is no effect, 100 is complete control
[18] = Preemergence, 62 g ai/ha, scale 0 to 100, 0 is no effect, 100 is complete control
[19] = Preemergence, 125 g ai/ha, scale 0 to 100, 0 is no effect, 100 is complete control
[20] = Preemergence, 250 g ai/ha, scale 0 to 100, 0 no effect, 100 complete control
[21] = postemergence, 62 g ai/ha, scale 0 to 100, 0 no effect, 100 complete control

Cc1ccc2ccccc2c1-c1c(OC(=O)OC(C)C)c(C)nn(C)c1=O [Compound 72]
Crabgrass, Large plant response rating [1, 14]: 10
Plant response rating, Crabgrass, Large [1, 15]: 35
Plant response rating, Crabgrass, Large [1, 16]: 60
Plant response rating, Crabgrass, Large [1, 17]: 60
Plant response rating, Crabgrass, Large [1, 18]: 80
Plant response rating, Crabgrass, Large [1, 19]: 65
Crabgrass, Large plant response rating [1, 20]: 85
Crabgrass, Large plant response rating [1, 21]: 25
Soybean plant response rating (soybean (Glycine max); [14]): 10
Plant response rating, Soybean (soybean (Glycine max); [15]): 15
Plant response rating, Soybean (soybean (Glycine max); [16]): 30
Plant response rating, Soybean (soybean (Glycine max); [17]): 80
Plant response rating, Soybean (soybean (Glycine max); [18]): 0
Plant response rating, Soybean (soybean (Glycine max); [19]): 0
Soybean plant response rating (soybean (Glycine max); [20]): 0
Soybean plant response rating (soybean (Glycine max); [21]): 15
Lambsquarters plant response rating [2, 14]: 85
Plant response rating, Lambsquarters [2, 15]: 90
Plant response rating, Lambsquarters [2, 16]: 95
Plant response rating, Lambsquarters [2, 17]: 60
Plant response rating, Lambsquarters [2, 18]: 65
Plant response rating, Lambsquarters [2, 19]: 85
Lambsquarters plant response rating [2, 20]: 90
Lambsquarters plant response rating [2, 21]: 85
Velvetleaf plant response rating [3, 14]: 45
Plant response rating, Velvetleaf [3, 15]: 85
Plant response rating, Velvetleaf [3, 16]: 95
Plant response rating, Velvetleaf [3, 17]: 30
Plant response rating, Velvetleaf [3, 18]: 45
Plant response rating, Velvetleaf [3, 19]: 80
Velvetleaf plant response rating [3, 20]: 85
Velvetleaf plant response rating [3, 21]: 85
Waterhemp plant response rating [4, 14]: 70
Plant response rating, Waterhemp [4, 15]: 85
Plant response rating, Waterhemp [4, 16]: 85
Plant response rating, Waterhemp [4, 17]: 75
Plant response rating, Waterhemp [4, 18]: 90
Plant response rating, Waterhemp [4, 19]: 90
Waterhemp plant response rating [4, 20]: 90
Waterhemp plant response rating [4, 21]: 65
Oilseed Rape plant response rating [5, 14]: 40
Plant response rating, Oilseed Rape [5, 15]: 20
Plant response rating, Oilseed Rape [5, 16]: 85
Plant response rating, Oilseed Rape [5, 17]: 30
Plant response rating, Oilseed Rape [5, 18]: 35
Plant response rating, Oilseed Rape [5, 19]: 80
Oilseed Rape plant response rating [5, 20]: 80
Oilseed Rape plant response rating [5, 21]: 35
Corn plant response rating (corn (Zea mays); [14]): 5
Plant response rating, Corn (corn (Zea mays); [15]): 20
Plant response rating, Corn (corn (Zea mays); [16]): 25
Plant response rating, Corn (corn (Zea mays); [17]): 0
Plant response rating, Corn (corn (Zea mays); [18]): 0
Plant response rating, Corn (corn (Zea mays); [19]): 0
Corn plant response rating (corn (Zea mays); [20]): 20
Corn plant response rating (corn (Zea mays); [21]): 10
Barnyardgrass plant response rating [6, 14]: 35
Plant response rating, Barnyardgrass [6, 15]: 50
Plant response rating, Barnyardgrass [6, 16]: 65
Plant response rating, Barnyardgrass [6, 17]: 10
Plant response rating, Barnyardgrass [6, 18]: 20
Plant response rating, Barnyardgrass [6, 19]: 55
Barnyardgrass plant response rating [6, 20]: 80
Barnyardgrass plant response rating [6, 21]: 40
Ragweed plant response rating [7, 14]: 80
Plant response rating, Ragweed [7, 15]: 95
Plant response rating, Ragweed [7, 16]: 90
Plant response rating, Ragweed [7, 17]: 85
Plant response rating, Ragweed [7, 18]: 90
Plant response rating, Ragweed [7, 19]: 100
Ragweed plant response rating [7, 20]: 95
Ragweed plant response rating [7, 21]: 90
Morningglory plant response rating [8, 14]: 80
Plant response rating, Morningglory [8, 15]: 95
Plant response rating, Morningglory [8, 16]: 100
Plant response rating, Morningglory [8, 17]: 75
Plant response rating, Morningglory [8, 18]: 85
Plant response rating, Morningglory [8, 19]: 90
Morningglory plant response rating [8, 20]: 90
Morningglory plant response rating [8, 21]: 90
Ryegrass, Italian plant response rating [9, 14]: 85
Plant response rating, Ryegrass, Italian [9, 15]: 90
Plant response rating, Ryegrass, Italian [9, 16]: 90
Plant response rating, Ryegrass, Italian [9, 17]: 90
Plant response rating, Ryegrass, Italian [9, 18]: 90
Plant response rating, Ryegrass, Italian [9, 19]: 90
Ryegrass, Italian plant response rating [9, 20]: 90
Ryegrass, Italian plant response rating [9, 21]: 90
Nutsedge, Yellow plant response rating [10, 14]: 30
Plant response rating, Nutsedge, Yellow [10, 15]: 70
Plant response rating, Nutsedge, Yellow [10, 16]: 85
Plant response rating, Nutsedge, Yellow [10, 17]: 10
Plant response rating, Nutsedge, Yellow [10, 18]: 10
Plant response rating, Nutsedge, Yellow [10, 19]: 60
Nutsedge, Yellow plant response rating [10, 20]: 70
Nutsedge, Yellow plant response rating [10, 21]: 60
Blackgrass plant response rating [11, 14]: 60
Plant response rating, Blackgrass [11, 15]: 80
Plant response rating, Blackgrass [11, 16]: 90
Plant response rating, Blackgrass [11, 17]: 40
Plant response rating, Blackgrass [11, 18]: 50
Plant response rating, Blackgrass [11, 19]: 70
Blackgrass plant response rating [11, 20]: 90
Blackgrass plant response rating [11, 21]: 70
Foxtail, Giant plant response rating [12, 14]: 50
Plant response rating, Foxtail, Giant [12, 15]: 75
Plant response rating, Foxtail, Giant [12, 16]: 85
Plant response rating, Foxtail, Giant [12, 17]: 60
Plant response rating, Foxtail, Giant [12, 18]: 70
Plant response rating, Foxtail, Giant [12, 19]: 85
Foxtail, Giant plant response rating [12, 20]: 85
Foxtail, Giant plant response rating [12, 21]: 70
Galium plant response rating [13, 14]: 80
Plant response rating, Galium [13, 15]: 95
Plant response rating, Galium [13, 16]: 95
Plant response rating, Galium [13, 17]: 90
Plant response rating, Galium [13, 18]: 90
Plant response rating, Galium [13, 19]: 95
Galium plant response rating [13, 20]: 95
Galium plant response rating [13, 21]: 95
